{
  "source": "paper PMC7221793",
  "about": "“Metabolism and Pharmacokinetics of SP-8356, a Novel (1S)-(−)-Verbenone Derivative, in Rats and Dogs and Its Implications in Humans” (Molecules, 2020)",
  "key": {"[1]": {"assay": "Metabolic stability in rat liver S9 fraction", "format": "in vitro ADME", "method": "The metabolic stability of SP-8356 was investigated using rat, dog and human liver S9 fractions fortified with cofactors for major drug metabolism. The final reaction mixture contained 1 mg/mL rat, dog or human liver S9 fraction, 1 mM cofactors (NADPH, UDPGA, PAPS, SAM and GSH), 2 mM MgCl2, 25 µg/mL alamethicin and 1 µM SP-8356 in final volume of 200 µL. The metabolic reactions were initiated by adding 10 mM cofactor solution to reaction mixtures preincubated for 5 min at 37 °C. The reactions were terminated at (0, 5, 15, 30 and 60) min by the addition of 200 µL ice-cold acetonitrile containing HSDH (1 µg/mL). The subsequent sample preparation and analytical methods were the same as those described in Section 4.5.\nThe degradation t1/2 of SP-8356 was calculated using the following Equation:(1) t1/2=0.693/k, where, k was the first-order rate constant calculated by one phase decay nonlinear regression using GraphPad Prism™ 7 (GraphPad Software, La Jolla, CA, USA). CLint was calculated using the following Equation:(2) CLint=k/fu,S9· mL incubation/mg liver S9· mg S9/g liver·g liver/kg body wt.\nThe scaling factors were (136, 120.7 and 120.7) mg S9 protein/g liver and (40, 32 and 26) g liver/kg body weight for rats, dogs and humans, respectively. For simplicity, the fraction unbound in S9 incubation (fu, S9) was assumed to be one. CLH was predicted using the hepatic well-stirred model, as follows:(3) CLH=QH·fu·CLint/QH+fu·CLint, where, QH was the hepatic blood flow of (55, 30 and 20) mL/min/kg for rats, dogs and humans, respectively. The fraction unbound (fu) was assumed to be one. EH was calculated using the following Equation:(4) EH=CLH/QH."}, "[2]": {"assay": "In vivo metabolite identification, pooled rat urine", "conditions": "rat pooled urine 0–24 h, single i.v. dose of SP-8356", "method": "Rat urine samples were collected from the animal studies approved by the IACUC of Korea University (Approval No.: KUIACUC-2017-124; Approval date: Jul. 29, 2017). SP-8356 dissolved in DMA/Cremophor EL/saline (5/10/85 vol.%) was dosed i.v. at 10 mg/kg (n = 5/dose group) to male SD rats (8 weeks old; (255–275) g; Koatech Inc., Gyeonggi, Republic of Korea) housed individually in metabolic cages. Urine samples were collected for ((0–4), (4–8) and (8–24)) h. Pooled urine samples were mixed with equal volume of acetonitrile containing HSDH (1 μg/mL) as IS, followed by filtration with a syringeless filter device (Mini-UniPrep™, PTFE filter media with polypropylene housing, 0.45 µm). The filtrate was analyzed by Agilent 6530 Q-TOF LC-MS/MS system equipped with dual AJS ESI ion source and Agilent 1200 series HPLC system, as follows.\nChromatographic separation was achieved on an Agilent Eclipse C18 column (2.1 mm × 100 mm, 3.5 µm) by a gradient elution with a mobile phase consisting of 0.1 vol.% formic acid in water (A) and 0.1 vol.% formic acid in acetonitrile (B) at 50 °C: starting with 5 vol.% B for 2 min, ramping to 95 vol.% B over 1 min, maintaining for 3 min. The mobile phase flow rate was kept at 0.45 mL/min throughout the run. The sample injection volume was 5 µL. […]"}, "[3]": {"assay": "Pharmacokinetic studies in rats (single i.v. and p.o. dose)", "format": "in vivo", "conditions": "plasma"}},
  "note": "Read-outs that look alike come from different tables or passages of the source.",
  "data": [
    {"smiles": "COc1cc(/C=C/C2=CC(=O)[C@H]3C[C@@H]2C3(C)C)cc(O)c1O", "note": "[SP-8356, (1S,5R)-4-((E)-3,4-dihydroxy-5-methoxystryryl)-6,6-dimethylbicylco[3.1.1]hept-3-en-2-one]", "values": [
      {"measurement": "CLint scaled at 1 µM", "setting": "[1]; Sprague-Dawley, liver S9 fraction, rat liver S9, +Cofactors", "result": 174, "unit": "L/h/kg"},
      {"measurement": "EH", "setting": "[1]; rat, +Cofactors, EH = CLH/QH", "result": 0.98},
      {"measurement": "CLH", "setting": "[1]; rat, +Cofactors, predicted by well-stirred model", "result": 3.24, "unit": "L/h/kg"},
      {"measurement": "relative peak size (AR) in urine, in total", "setting": "[2]", "result": "almost insignificant"},
      {"measurement": "Vd", "setting": "[3]; male, SD (rat), Beagle (dog), iv, range over rats and dogs, read-out: mean volumes of distribution during terminal phase (Vz) and at steady state (Vss)", "result": "1.3 to 1.9", "unit": "L/kg"},
      {"measurement": "AUC(0-inf)", "setting": "[3]; male, SD, iv, rat, 20 mg/kg", "result": "1.03 ± 0.314", "unit": "µg·h/mL"},
      {"measurement": "AUC(0-t)", "setting": "[3]; male, SD, iv, rat, 20 mg/kg", "result": "0.981 ± 0.314", "unit": "µg·h/mL"},
      {"measurement": "clearance", "setting": "[3]; male, SD, iv, rat, 20 mg/kg", "result": 21, "unit": "L/h/kg"},
      {"measurement": "half-life", "setting": "[3]; male, SD, rat, iv, 20 mg/kg", "result": "< 6", "unit": "min"},
      {"measurement": "Vd", "setting": "[3]; male, SD, rat, iv, 20 mg/kg, read-out: Vss", "result": "1.6 ± 0.5", "unit": "L/kg"},
      {"measurement": "Vd", "setting": "[3]; male, SD, rat, iv, 20 mg/kg, read-out: Vz", "result": "1.9 ± 0.6", "unit": "L/kg"},
      {"measurement": "t1/2", "setting": "[3]; rat, 20 mg/kg", "result": "4.2 ± 1.2", "unit": "min"}
    ]}
  ]
}
